US8268635B2, “Methods of identifying agents that selectively activate p38 and/or NKkB signaling” (priority 2006, dated 2012)
“Also recorded” adds a separate entry of the source. Where no end group is shown, it is not given here.

How the values were obtained:
JNK = JNK activation in neutrophils in suspension; type: cell-based, human; conditions: 15 min; TNF 100 U/ml, TNF70-80 10 μM, anisomycin 2.5 μg/ml
Protocol: (§1) The cells were lysed and the lysate assessed by western blot analysis for the level of dual-phosphorylated ERK1/ERK2 (top panel) and ERK2 protein (bottom panel). […] The level of myelin basic protein phosphorylation was quantitated by an Instant Imager.
(§2) Neutrophils were prepared from peripheral blood of healthy donors by a rapid single-step technique (Kumaratilake, L. M., Rathjen, D. A., Mack, P., Widmer, F., Prasertsiriroj, V., and Ferrante, A. (1995) J. Clin. Invest. 95: 2315-2323) using Hypaque-Ficoll and according to the institution's guidelines on human ethics. […]
(§3) KHS (hereon referred to as “GCKR”) activity was assayed as described previously using myelin basic protein as a substrate (Shi, C. S., Leonardi, A., Kyriakis, J., Siebenlist, U., and Kerhl, J. H. (1999) J. Immunol. 163: 3279-3285). ASK-1 activation was determined in immunoprecipitates of ASK-1 by autophosphorylation (Kyriakis, J. M., and Auruch, J. (2001) Physiol. Rev. 81: 807-869). p38 and ERK activities were determined as described using myelin basic protein as a substrate (Hii, C. S., Huang, Z. H., Bilney, A., Costabile, M., Murray, A. W., Rathjen, D. A., Der, C. J., and Ferrante, A. (1998) J. Biol. Chem. 273: 19277-19282). […]

ASK-1 [1] = test: ASK-1 autophosphorylation in neutrophils; type: cell-based, human
Protocol: (§4) GCKR was immunoprecipitated from cell lysates and activity assayed using myelin basic protein (MBP) as the substrate. […] Activation of ASK-1 was determined by kinase autophosphorylation.
(§5) KHS (hereon referred to as “GCKR”) activity was assayed as described previously using myelin basic protein as a substrate (Shi, C. S., Leonardi, A., Kyriakis, J., Siebenlist, U., and Kerhl, J. H. (1999) J. Immunol. 163: 3279-3285). ASK-1 activation was determined in immunoprecipitates of ASK-1 by autophosphorylation (Kyriakis, J. M., and Auruch, J. (2001) Physiol. Rev. 81: 807-869). p38 and ERK activities were determined as described using myelin basic protein as a substrate (Hii, C. S., Huang, Z. H., Bilney, A., Costabile, M., Murray, A. W., Rathjen, D. A., Der, C. J., and Ferrante, A. (1998) J. Biol. Chem. 273: 19277-19282). […] A solid phase assay using glutathione-S-transferase (GST)-conjugated-jun (1-79) was employed to assay JNK activity (Hii, C. S., Huang, Z. H., Bilney, A., Costabile, M., Murray, A. W., Rathjen, D. A., Der, C. J., and Ferrante, A. (1998) J. Biol. Chem. 273: 19277-19282). Phosphorylated ASK-1, myelin basic protein and GST-jun (1-79) were fractionated on 8, 16 and 12% SDS polyacrylamide gels, respectively, and the bands were detected and radioactivity determined using an Instant Imager (Packard Instruments, Canberra, Australia).

p38 [2] = test: p38 kinase activity in human neutrophils; type: cell-based; conditions: 5 min; TNF 100 or 1000 U/ml, TNF70-80 10-50 μM
Protocol: as §1
Neutrophils were prepared from peripheral blood of healthy donors by a rapid single-step technique (Kumaratilake, L. M., Rathjen, D. A., Mack, P., Widmer, F., Prasertsiriroj, V., and Ferrante, A. (1995) J. Clin. Invest. 95: 2315-2323) using Hypaque-Ficoll and according to the institution's guidelines on human ethics. […] These were either used as cells in suspension or as adhered neutrophils by adding the cells to plasma coated plates as previously described (Powell, W., Gravel, S., Halwani, F., Hii, C. S., Huang, Z. H., Tan, A. M., and Ferrante, A. (1997) J. Immunol. 159: 2952-2959).
as §5
The level of myelin basic protein phosphorylation was quantitated by an Instant Imager.

ERK = ERK activation in adherent neutrophils; type: cell-based, human; conditions: neutrophils pre-adhered to plasma-coated dishes; 15 min; TNF 1000 U/ml, TNF70-80 10 μM
Protocol: Neutrophils were prepared from peripheral blood of healthy donors by a rapid single-step technique (Kumaratilake, L. M., Rathjen, D. A., Mack, P., Widmer, F., Prasertsiriroj, V., and Ferrante, A. (1995) J. Clin. Invest. 95: 2315-2323) using Hypaque-Ficoll and according to the institution's guidelines on human ethics. […] These were either used as cells in suspension or as adhered neutrophils by adding the cells to plasma coated plates as previously described (Powell, W., Gravel, S., Halwani, F., Hii, C. S., Huang, Z. H., Tan, A. M., and Ferrante, A. (1997) J. Immunol. 159: 2952-2959). […]
as §3

ERK1/ERK2 = ERK1/ERK2 activation in neutrophils in suspension; type: cell-based, human; conditions: TNF, TNF70-80 15 min; PMA 100 nM 5 min
Protocol: as §1, §2, §3

[3] = system: mutant receptor peptide M4; test: Binding of biotinylated TNF70-80 to mutant receptor peptide M4; set-up: species or system human; conditions: 20 μM biotinylated TNF70-80, 18 hrs at 37° C.
Protocol: 100 μl of 0.7 mM solution of M4 or 1% BSA in PBS for control was coated on plates overnight for 24 hrs at 37° C. Plates were blocked for 6 hrs at 37° C. with 3% BSA in PBS. 100 μl of 20 μM of B-TNF70-80 was added to each well and allowed to incubate for 18 hrs at 37° C. Streptavidin-horseradish peroxidase and TMB H2O2 was added and bound product was detected by measuring absorbance at 450 nm.
100 μl of 0.7 mM solution of M4 or 1% BSA in PBS for control was coated on plates overnight for 24 hrs at 37° C. Plates were blocked for 6 hrs at 37° C. with 3% BSA in PBS. 100 μl of 20 μM of B-TNF70-80 was added to each well and allowed to incubate for 18 hrs at 37° C. Streptvadin-horseradish peroxidase and TMB H2O2 was added and bound product was detected by measuring absorbance at 450 nm.

p38 [4] = test: p38 activation in 70Z/3 cells transfected with hTNFR1 constructs; type: cell-based, mouse
Protocol: The cells were then lysed, protein contents quantified and subjected to p38 kinase assay by Western blot. The results are presented as the mean+−sem of 3 experiments.
The cells were maintained in RPMI-1640 medium with 4.5 g/L glucose, 2 mM L-glutamine, […] 2-mercaptoethanol and 10% FCS in an atmosphere of 95% air and 5% CO2. Cells were plated onto 10 cm plates at 4×10^7 cells in 15 ml culture medium. Before performing transient transfection, plasmid DNA (hTNFR1), kindly provided by Dr M. Kronke, Institute of Medical Microbiology and Hygiene, Medical Center University of Cologne, Koln, Germany (Adam, D., Wiegmann, K., Adam-Klages, S., Ruff A., and Kronke, M. (1996) J. Biol. Chem. 271: 14617-22), (20 μg in 1 ml of RPMI1640) was mixed with LipofectAMINE 2000 (Invitrogen) (60 μl in 1 ml of RPMI) and the mixture were left at room temperature for 20 min. The mixture was directly added to the cells and incubated for 24 h. The cells were washed twice with HBSS before use.

ASK-1 [5] = test: ASK-1 autophosphorylation in HEK293T cells; type: cell-based, human; conditions: 3 or 7 min
Protocol: as §4, §5

neutrophils = test: Neutrophil superoxide production, lucigenin chemiluminescence assay; type: cell-based, human; conditions: agent alone as stimulus
Protocol: Neutrophils were pre-treated with varying concentrations of SB203580 for 30 min and then exposed to 10 μM TNF70-80. The lucigenin enhanced chemiluminescence produced by the cells was measured in a luminometer. The peak initial rate of chemiluminescence produced is presented as the mean±sem of six experiments. The response in the presence of the inhibitor is expressed as a % of the control response.
Neutrophil superoxide production was measured as the chemiluminescence generated by the reduction of lucigenin, essentially as described previously (Kumaratilake, L. M., Rathjen, D. A., Mack, P., Widmer, F., Prasertsiriroj, V., and Ferrante, A. (1995) J. Clin. Invest. 95: 2315-2323). Briefly, to 1×10^6 neutrophils in 400 μl of HBSS was added 100 μl of stimulus and 500 μl of 250 μg/ml of lucigenin. The chemiluminescence was measured in a luminometer (Berthold Technologies, Bad Wildbad, Germany) over a 20 min period and the data imported into Microsoft Excel (Redmond, Wash.).
The cells were placed in a water-jacketed luminometer chamber (37° C.) (Autolumat Plus Model LB 953, Berthold Technologies, Bundoora, Australia) and the resulting light output recorded in millivolts (mV) at 10 second intervals. The data was analysed with Multiuser software (Berthold Tubemaster, Bundoora, Australia). The results are expressed as peak superoxide produced.
Various concentrations of TNFR1 fragment or diluent were added to neutrophils (106 in 100 μl HBSS) and incubated at 37° C. for 30 min 5% CO2 in air. After incubation 500 μl of lucigenin (250 μM, final), 100 μl of TNF70-80 (100 μg) were added and the final volume was adjusted to 1 ml.
Superoxide production by human neutrophils was measured by the reduction of the fluorescent lucigenin, (9,9′-bis(N-methyl-acridinium nitrate) (Sigma Chemical Company). This provides a direct and specific measure of agonist-induced superoxide production. Lucigenin-dependant chemiluminescence was measured as described previously Gyllenhannar H. (1987) J. Immunol. Methods 97:209-213. Briefly, 50 μl of 100 mg/ml of peptide or diluent and 250 ml of lucigenin was added to neutrophils (5×10^5 in 50 μl HBSS). The cells were placed in a water-jacketed luminometer chamber (37° C.) (Autolumat Plus Model LB 953, Berthold Technologies, Bundoora, Australia) and the resulting light output recorded in millivolts (mV) at 10 second intervals. The data was analysed with Multi-user software (Berthold Tubemaster, Bundoora, Australia).
Data are presented as mean±SEM of 3 experiments.

PSTHVLITHTI-OH [TNF70-80]
activity/phosphorylation of JNK in neutrophils in suspension (JNK): neither TNF nor TNF70-80 stimulated the activity of either JNK or ERK
ASK-1 phosphorylation in non-adherent neutrophils (ASK-1 [1]; data not shown): not altered
ASK-1 phosphorylation in adherent neutrophils (ASK-1 [1]; plasma-coated dishes, 3 or 7 min): neither TNF nor TNF70-80 increased the level of ASK-1 phosphorylation
activity of p38 in neutrophils in suspension (p38 [2]): enhanced the activity of p38
ERK activation in adherent neutrophils (ERK): failed to stimulate the activation of the ERKs
activity/dual phosphorylation of ERK in neutrophils in suspension (ERK1/ERK2): neither TNF nor TNF70-80 stimulated the activity of either JNK or ERK
binding to mutant receptor peptide M4 (truncated receptor) [3]: binds to the truncated receptor
p38 activity in 70Z cells transfected with an empty vector (p38 [4]): did not stimulate the activity of p38
p38 activity in 70Z cells, TNF receptor with C1-C3 deleted (p38 [4]): still able to stimulate p38 activity
p38 activity in 70Z cells, TNF receptor with C1-C4 deleted (p38 [4]): retained its ability to stimulate p38 activity
p38 activity in 70Z cells, TNF receptor with C1 domain deleted (p38 [4]): able to stimulate the activity of p38
p38 activation in 70Z/3 cells transfected with wild type hTNFR1 (p38 [4]; 5 min, TNF 1000 U/ml, peptides 10 μM): caused the activation of p38; also recorded: stimulated the activity of p38 in cells transfected with wild type receptors
p38 activation in non-transfected 70Z/3 cells (p38 [4]; cells lacking TNFR, 5 min, TNF 1000 U/ml, peptides 10 μM): neither TNF nor TNF70-80 activated p38
ASK-1 autophosphorylation in HEK293T cells (ASK-1 [5]): did not affect the level of ASK-1 phosphorylation
stimulation of neutrophil respiratory burst / superoxide production (neutrophils): stimulated a respiratory burst
